Source: ChEMBL document CHEMBL3608280, “Tetramic Acids and Pyridone Alkaloids from the Endolichenic Fungus Tolypocladium cylindrosporum” (J Nat Prod, 2015)
pIC50: −log10 of the molar value.

What was measured:
[1] = test system: MDA-MB-231; assay: Cytotoxicity against human MDA-MB-231 cells assessed as growth inhibition after 48 hrs by MTT assay; format: functional, cell-based; details: MDA-MB-231, 48 h
[2] = test system: A549; assay: Cytotoxicity against human A549 cells assessed as growth inhibition after 48 hrs by MTT assay; format: functional, cell-based; details: A549, 48 h
[3] = test system: A2780; assay: Cytotoxicity against human A2780 cells assessed as growth inhibition after 48 hrs by MTT assay; format: functional, cell-based; details: A2780, 48 h
[4] = test system: K562; assay: Cytotoxicity against human K562 cells assessed as growth inhibition after 48 hrs by MTT assay; format: functional, cell-based; details: K562, 48 h
[5] = test system: A549; assay: Cell cycle arrest in human A549 cells assessed as accumulation at G0/G1 phase after 24 hrs by propidium iodide staining-based flow cytometric analysis; format: functional
[6] = test system: A549; assay: Cell cycle arrest in human A549 cells assessed as accumulation at G1 phase at 1 uM after 24 hrs by propidium iodide staining-based flow cytometric analysis (reference value: 52.73%); format: functional
[7] = test system: A549; assay: Cell cycle arrest in human A549 cells assessed as accumulation at S phase at 1 uM after 24 hrs by propidium iodide staining-based flow cytometric analysis (reference value: 36.98%); format: functional
[8] = test system: A549; assay: Cell cycle arrest in human A549 cells assessed as accumulation at G2/M phase at 1 uM after 24 hrs by propidium iodide staining-based flow cytometric analysis (reference value: 10.29%); format: functional
[9] = test system: A549; assay: Cell cycle arrest in human A549 cells assessed as accumulation at G1 phase at 2 uM after 24 hrs by propidium iodide staining-based flow cytometric analysis (reference value: 52.73%); format: functional
[10] = test system: A549; assay: Cell cycle arrest in human A549 cells assessed as accumulation at S phase at 2 uM after 24 hrs by propidium iodide staining-based flow cytometric analysis (reference value: 36.98%); format: functional
[11] = test system: A549; assay: Cell cycle arrest in human A549 cells assessed as accumulation at G2/M phase at 2 uM after 24 hrs by propidium iodide staining-based flow cytometric analysis (reference value: 10.29%); format: functional
[12] = test system: A549; assay: Induction of apoptosis in human A549 cells after 48 hrs by annexin V-FITC/propidium iodide staining-based flow cytometric analysis; format: functional, cell-based
[13] = test system: A549; assay: Induction of apoptosis in human A549 cells assessed as early apoptotic cells at 1 uM after 48 hrs by annexin V-FITC/propidium iodide staining-based flow cytometric analysis (reference value: 0.86%); format: functional
[14] = test system: A549; assay: Induction of apoptosis in human A549 cells assessed as late apoptotic cells at 1 uM after 48 hrs by annexin V-FITC/propidium iodide staining-based flow cytometric analysis (reference value: 3.94%); format: functional
[15] = test system: A549; assay: Induction of apoptosis in human A549 cells assessed as dead cells at 1 uM after 48 hrs by annexin V-FITC/propidium iodide staining-based flow cytometric analysis (reference value: 0.43%); format: functional
[16] = test system: A549; assay: Induction of apoptosis in human A549 cells assessed as early apoptotic cells at 2 uM after 48 hrs by annexin V-FITC/propidium iodide staining-based flow cytometric analysis (reference value: 0.86%); format: functional
[17] = test system: A549; assay: Induction of apoptosis in human A549 cells assessed as late apoptotic cells at 2 uM after 48 hrs by annexin V-FITC/propidium iodide staining-based flow cytometric analysis (reference value: 3.94%); format: functional
[18] = test system: A549; assay: Induction of apoptosis in human A549 cells assessed as dead cells at 2 uM after 48 hrs by annexin V-FITC/propidium iodide staining-based flow cytometric analysis (reference value: 0.43%); format: functional

SMILES	pIC50 [1]	pIC50 [2]	pIC50 [3]	pIC50 [4]	also measured
C=C[C@@H]1C[C@H](C)C[C@H](C)C1c1c(O)ccn(O)c1=O (stereo partly drawn)	5.79	5.91	5.87	5.74	Activity [5]: Dose-dependent effect; Activity [6]: 78.16%; Activity [7]: 17.49%; Activity [8]: 4.35%; Activity [9]: 82.63%; Activity [10]: 16.02%; Activity [11]: 1.35%; Activity [12]: Dose-dependent effect; Activity [13]: 3%; Activity [14]: 21.94%; Activity [15]: 4.25%; Activity [16]: 1.06%; Activity [17]: 28.3%; Activity [18]: 5.41%
Cc1cc(O)c2oc(=O)c(O)c(-c3ccc(O)cc3)c2c1	< 4.40	< 4.40	< 4.40	< 4.40	
COc1cccc2c1C(=O)c1c(O)c3c(c(O)c1C2=O)C[C@@](O)(C(=O)CO)C[C@@H]3O[C@H]1C[C@H](N)[C@H](O)[C@H](C)O1 [DOXORUBICIN]		6.29	6.22	5.96	
C/C=C\C[C@@H](C)C[C@@H](C)/C(O)=C1/C(=O)N/C(=C\c2ccc(O)cc2)C1=O	< 4.40	< 4.40	< 4.40	< 4.40	
CC(C)(O)[C@@H]1C[C@@H](O)[C@]2(C)[C@H](CC[C@@]3(C)[C@H]2CC[C@H]2Cc4c([nH]c5ccccc45)[C@@]23C)O1 [TERPENDOLE E]	4.41	4.73	4.51	4.41	
C/C=C\C[C@H](C)C[C@H](C)/C(O)=C1/C(=O)N[C@H]([C@H](O)c2ccc(O)cc2)C1=O	< 4.40	< 4.40	< 4.40	< 4.40	
C/C=C\C[C@H](C)C[C@H](C)/C(O)=C1/C(=O)N[C@@H]([C@@H](O)c2ccc(O)cc2)C1=O	< 4.40	< 4.40	< 4.40	< 4.40	
C=C[C@@H]1C[C@H](C)C[C@H](C)C1c1c(O)cc[nH]c1=O (stereo partly drawn)	< 4.40	< 4.40	< 4.40	< 4.40	
C/C=C\C[C@H](C)C[C@H](C)/C(O)=C1/C(=O)N/C(=C\c2ccc(O)cc2)C1=O	< 4.40	< 4.40	< 4.40	< 4.40	
CC1Oc2c(-c3ccc(O)cc3)c[nH]c(=O)c2[C@@H]2[C@@H](C)C[C@@H](C)C[C@@H]12 (stereo partly drawn)	< 4.40	< 4.40	< 4.40	< 4.40	
